Assay: Acute non-GLP IVT ocular tolerability and toxicity study of sunitinib malate (free drug)
Type: in vivo, pigmented rabbits
Conditions: single bilateral IVT injection in PBS, up to 7 days
Experimental: An acute, non-GLP IVT study was conducted to evaluate the ocular tolerability and toxicity of sunitinib malate (free drug) for up to 7 days following a single IVT injection. Sunitinib malate was formulated in phosphate buffered saline and injected bilaterally (0.1 mL) at 0.125 or 1.25 mg per eye.
FIG. 13A, FIG. 13B, and FIG. 13C illustrate select PK profiles for sunitinib malate in the retina, vitreous, and plasma, respectively, from pigmented rabbits.

## CCN(CC)CCNC(=O)c1c(C)[nH]c(/C=C2\C(=O)Nc3ccc(F)cc32)c1C [sunitinib malate]
  no-observed-adverse-effect-level (NOAEL) dose: 0.125 mg/eye

From patent US10441548B2, “Aggregating microparticles for medical therapy” (GRAYBUG VISION, INC., priority 2015, dated 2019)
